Source: US20180179198A1, “TRICYCLIC MODULATORS OF TNF SIGNALING” (AbbVie Inc., priority 2015, published 2018)
Read-outs that look alike come from different tables or passages of the source.

Target: TNFα trimer (Homo sapiens, UniProt P01375)
Assay: TNFα FP Competitive Binding Assay
Protocol: TNFα FP Competitive Binding Assay
• 1. Assay Buffer: Prepare 1× Assay Buffer (Water with 47 mM HEPES, 47 mM NaCl, 0.9 mM EDTA, 0.0071% Triton X-100) by adding 25 mL of 1 M HEPES, 5 mL of 5 M NaCl, 1 mL of 0.5 M EDTA, and 375 μL of a 10% Triton X-100 stock to a fresh 500 mL bottle of water. • 2. Assay Mixture: Prepare fresh Assay Mixture containing 20 nM TNFα trimer (60 nM protein) and 1 nM 2′,7′-difluoro-3′,6′-dihydroxy-N-(2-(2-(2-((4-(isoquinolin-8-yl)-3-(4-(isoquinolin-8-yl)phenethoxy)benzyl)oxy)ethoxy)ethoxy)ethyl)-3-oxo-3H-spiro[isobenzofuran-1,9′-xanthene]-5-carboxamide probe in 1× Assay Buffer.
Compound Plate Preparation
Manual 12-point 1:3 Dilution Plates: (384 well polypropylene plates)
Top concentration of compounds, 10 mM in DMSO, dispensed in rows A-O in columns 1 and 13. Compounds are serially diluted 1:3 with DMSO in columns 2-12 or 14-24 using a 16-channel Matrix pipettor. Plates stored at −20° C.
Discovery Preps 12-point 1:3 Dilution Plates: (384 well assay plates)
Top concentration, 5 mM in DMSO, of compounds placed in rows A-O in columns 1 and 13. Compounds are serially diluted 1:3 with DMSO in columns 2-12 or 14-24. Compound solutions are dispensed into replicate assay plates at 410 nL per well. Plates stored at 4° C.
TNFα FP Competitive Binding Assay Protocol
• 1. Compound plates are warmed to rt. • 2. Fresh Assay Mixture is prepared. • 3. Assay Mixture (20 μL) is dispensed each well of 384 assay plates using a Thermo Multidrop Combi or 16-channel Matrix pipettor. If Manual 12-point 1:3 Dilution Plates are to be tested, Assay Mix is dispensed into empty plates. Discovery Preps 12-point 1:3 Dilution Plates already contain 410 nL compound solution in DMSO. • 4. For Manual 12-point 1:3 Dilution Plates, 0.7 μL is manually transferred using a 16-channel Matrix pipettor to replicate assay plates containing 20 μL Assay Mixture for a final top compound concentration of 338 μM (3.4% DMSO). • 5. For Discovery Preps 12-point 1:3 Dilution Plates, 20 μL Assay Mixture added the 410 nL compound solution already in the plates yields a final top compound concentration of 100 μM (2.0% DMSO). • 6. Background subtraction controls are wells P1-P8 containing only Assay Buffer. The low % inhibition controls are wells P9-P16 containing only Assay Mix. The high % inhibition are wells P17-P24 containing only 1 nM 2′,7′-difluoro-3′,6′-dihydroxy-N-(2-(2-(2-((4-(isoquinolin-8-yl)-3-(4-(isoquinolin-8-yl)phenethoxy)benzyl)oxy)ethoxy)ethoxy)ethyl)-3-oxo-3H-spiro[isobenzofuran-1,9′-xanthene]-5-carboxamide probe in 1× Assay Buffer. • 7. Plates are incubated at […] for 18-24 h in 37° C. incubator (CO2 is off). • 8. Prior to reading the assay, the plates are placed in a dark cabinet to equilibrate at rt for one hour. • 9. Background-subtracted fluorescence polarization (mP) is measured using a PerkinElmer Envision plate reader. • 10. Raw data is entered into Assay Explorer and dose-response curves are generated using a variable slope curve.

[1] = fluorescence polarization competition, 20 nM TNFα trimer, 1 nM OregonGreen488 probe, read-out: TNF IC50 (TNFα FP binding assay IC50)
[2] = TNFα FP competitive binding assay, class symbols A/B/C, read-out: TNF IC50

TNFα trimer, sequence (P01375 77-233 limits assumed): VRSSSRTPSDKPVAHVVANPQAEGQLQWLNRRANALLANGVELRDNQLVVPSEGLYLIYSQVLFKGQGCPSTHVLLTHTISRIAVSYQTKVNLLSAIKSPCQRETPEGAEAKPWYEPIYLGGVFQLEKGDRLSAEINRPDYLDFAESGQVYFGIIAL

## CSc1ccc(-c2ccc3nc4n(c3c2)C(c2ccccc2)CC4)cn1 (stereo not shown) [A.16]
[1]
  IC50: 1000 to 10000 nM

## c1ccc(C2CCc3nc4ccc(-c5ccc(N6CCNCC6)nc5)cc4n32)cc1 (stereo not shown) [A.17]
[1]
  IC50: 1000 to 10000 nM

## N#CCOc1cccc(-c2ccc3nc4n(c3c2)C(c2ccccc2)CC4)c1 (stereo not shown) [A.18]
[1]
  IC50: 1000 to 10000 nM

## O=C(NC1CC1)c1ccc(-c2ccc3nc4n(c3c2)C(c2ccccc2)CC4)cc1 (stereo not shown) [A.19]
[1]
  IC50: 1000 to 10000 nM

## CN1CCN(c2ccc(-c3ccc4nc5n(c4c3)C(c3ccccc3)CC5)cn2)CC1 (stereo not shown) [A.20]
[1]
  IC50: 1000 to 10000 nM

## c1ccc(C2CCc3nc4ccc(-c5cnn(Cc6cccnc6)c5)cc4n32)cc1 (stereo not shown) [A.21]
[1]
  IC50: 1000 to 10000 nM

## c1ccc(C2CCc3nc4ccc(-c5cccnc5)cc4n32)cc1 (stereo not shown) [A.22]
[1]
  IC50: 1000 to 10000 nM

## Nc1ncc(-c2ccc3nc4n(c3c2)C(c2ccccc2)CC4)cn1 (stereo not shown) [A.23]
[1]
  IC50: 1000 to 10000 nM

## c1ccc(C2CCc3nc4ccc(-c5cncnc5)cc4n32)cc1 (stereo not shown) [A.24]
[1]
  IC50: 1000 to 10000 nM

## Cc1cncc(-c2ccc3nc4n(c3c2)C(c2ccccc2)CC4)c1 (stereo not shown) [A.25]
[1]
  IC50: 1000 to 10000 nM

## O=C(NCC1CCCO1)c1ccc(-c2ccc3nc4n(c3c2)C(c2ccccc2)CC4)cc1 (stereo not shown) [A.26]
[1]
  IC50: 1000 to 10000 nM

## Nc1ccc(-c2ccc3nc4n(c3c2)C(c2ccccc2)CC4)cn1 (stereo not shown) [A.27]
[1]
  IC50: 10000 to 100000 nM

## Cc1c(-c2ccc3nc4n(c3c2)C(c2ccccc2)CC4)cnn1C (stereo not shown) [A.28]
[1]
  IC50: 10000 to 100000 nM

## CN(C)C(=O)c1cccc(-c2ccc3nc4n(c3c2)C(c2ccccc2)CC4)c1 (stereo not shown) [A.29]
[1]
  IC50: 10000 to 100000 nM

## CS(=O)(=O)c1cccc(-c2ccc3nc4n(c3c2)C(c2ccccc2)CC4)c1 (stereo not shown) [A.30]
[1]
  IC50: 10000 to 100000 nM

## CS(=O)(=O)c1cncc(-c2ccc3nc4n(c3c2)C(c2ccccc2)CC4)c1 (stereo not shown) [A.31]
[1]
  IC50: 10000 to 100000 nM

## Cc1ncccc1-c1ccc2nc3n(c2c1)C(c1ccccc1)CC3 (stereo not shown) [A.32]
[1]
  IC50: 10000 to 100000 nM

## CC(C)S(=O)(=O)c1ccc(-c2ccc3nc4n(c3c2)C(c2ccccc2)CC4)cc1 (stereo not shown) [A.33]
[1]
  IC50: < 1000 nM

## N#CCOc1ccc(-c2ccc3nc4n(c3c2)C(c2ccccc2)CC4)cc1 (stereo not shown) [A.34]
[1]
  IC50: 1000 to 10000 nM

## CCNC(=O)c1ccc(-c2ccc3nc4n(c3c2)C(c2ccccc2)CC4)cc1 (stereo not shown) [A.35]
[1]
  IC50: 1000 to 10000 nM

## NC(=O)c1ccc(-c2ccc3nc4n(c3c2)C(c2ccccc2)CC4)cc1 (stereo not shown) [A.36]
[1]
  IC50: 1000 to 10000 nM

## c1ccc(C2CCc3nc4ccc(-c5ccc6c(c5)OCO6)cc4n32)cc1 (stereo not shown) [A.37]
[1]
  IC50: 1000 to 10000 nM

## COc1cncc(-c2ccc3nc4n(c3c2)C(c2ccccc2)CC4)c1 (stereo not shown) [A.38]
[1]
  IC50: 1000 to 10000 nM

## COCCNC(=O)c1ccc(-c2ccc3nc4n(c3c2)C(c2ccccc2)CC4)cc1 (stereo not shown) [A.39]
[1]
  IC50: 1000 to 10000 nM

## CNC(=O)c1ccc(-c2ccc3nc4n(c3c2)C(c2ccccc2)CC4)cc1 (stereo not shown) [A.40]
[1]
  IC50: 1000 to 10000 nM

## N#CCc1cccc(-c2ccc3nc4n(c3c2)C(c2ccccc2)CC4)c1 (stereo not shown) [A.41]
[1]
  IC50: 1000 to 10000 nM

## CS(=O)(=O)NCc1cccc(-c2ccc3nc4n(c3c2)C(c2ccccc2)CC4)c1 (stereo not shown) [A.42]
[1]
  IC50: 1000 to 10000 nM

## CNC(=O)c1cccc(-c2ccc3nc4n(c3c2)C(c2ccccc2)CC4)c1 (stereo not shown) [A.43]
[1]
  IC50: 1000 to 10000 nM

## CCN(C)C(=O)c1cccc(-c2ccc3nc4n(c3c2)C(c2ccccc2)CC4)c1 (stereo not shown) [A.44]
[1]
  IC50: 10000 to 100000 nM

## CN(C)CCNC(=O)c1cccc(-c2ccc3nc4n(c3c2)C(c2ccccc2)CC4)c1 (stereo not shown) [A.45]
[1]
  IC50: 10000 to 100000 nM

## Cn1cc(-c2ccc3nc4n(c3c2)C(c2ccccc2)CC4)ccc1=O (stereo not shown) [A.46]
[1]
  IC50: 10000 to 100000 nM

## Cn1ccc(-c2ccc3nc4n(c3c2)C(c2ccccc2)CC4)c1 (stereo not shown) [A.47]
[1]
  IC50: 10000 to 100000 nM

## OC1(c2ncc(-c3ccc4nc5n(c4c3)[C@@H](c3ccccc3)CC5)cn2)CCOCC1 [AA.1]
[2]
  IC50: < 1000 nM

## OC1(c2ncc(-c3ccc4nc5n(c4c3)[C@@H](c3ccccc3)CC5)cn2)CCC1 [AA.2]
[2]
  IC50: < 1000 nM

## OC1(c2ncc(-c3ccc4nc5n(c4c3)[C@@H](c3ccccc3)CC5)cn2)COC1 [AA.3]
[2]
  IC50: < 1000 nM

## c1ccc([C@H]2CCc3nc4ccc(-c5ccnc(OC6CCOCC6)c5)cc4n32)cc1 [AA.4]
[2]
  IC50: < 1000 nM

## c1ccc([C@H]2COCc3nc4ccc(-c5cnc(N6CCOCC6)nc5)nc4n32)cc1 [AB.1]
[2]
  IC50: < 1000 nM

## CC(C)(O)c1ncc(-c2ccc3nc4n(c3n2)[C@@H](c2ccccc2)COC4)cn1 [AB.2]
[2]
  IC50: < 1000 nM

## O=C1CN(c2ncc(-c3ccc4nc5n(c4n3)[C@@H](c3ccccc3)COC5)cn2)CCN1 [AB.3]
[2]
  IC50: < 1000 nM

## OC1CCN(c2ncc(-c3ccc4nc5n(c4n3)[C@@H](c3ccccc3)COC5)cn2)CC1 [AB.4]
[2]
  IC50: < 1000 nM

## O=C1NCN2CCN(c3ncc(-c4ccc5nc6n(c5n4)[C@@H](c4ccccc4)COC6)cn3)CC12 (stereo partly shown) [AB.5]
[2]
  IC50: < 1000 nM

## COc1ccccc1[C@H]1COCc2nc3ccc(-c4cnc(N5CCC(O)CC5)nc4)nc3n21 [AC.1]
[2]
  IC50: < 1000 nM

## COc1ccccc1C1CCc2nc3ccc(-c4cnc(N5CCC(O)CC5)nc4)nc3n21 (stereo not shown) [AD.1]
[2]
  IC50: < 1000 nM

## COc1ccccc1C1CCc2nc3ccc(-c4cnc(N5CCN6C(=O)NCC6C5)nc4)nc3n21 (stereo not shown) [AD.2]
[2]
  IC50: < 1000 nM

## COc1ccccc1C1CCCc2nc3ccc(-c4cnc(N5CCC(O)CC5)nc4)nc3n21 (stereo not shown) [AE.1]
[2]
  IC50: < 1000 nM

## O=C1NC[C@@H]2CN(c3ncc(-c4ccc5nc6c(n5c4)[C@@H](c4ccccc4)COC6)cn3)CCN12 [AF.1]
[2]
  IC50: < 1000 nM

## O=C1NC[C@@H]2CN(c3ncc(-c4ccc5nc6c(n5n4)[C@@H](c4ccccc4)COC6)cn3)CCN12 [AF.2]
[2]
  IC50: < 1000 nM

## COc1ccccc1C1CCc2nc3ccc(-c4cnc(N5CCOCC5)nc4)cn3c21 (stereo not shown) [AG.1]
[2]
  IC50: < 1000 nM

## O=C1NCC2CN(c3ncc(-c4ccc5nc6n(c5c4)C(c4ccccc4F)COC6)cn3)CCN12 (stereo not shown) [AH.1]
[2]
  IC50: < 1000 nM

## O=C1NCC2CN(c3ncc(-c4ccc5nc6n(c5c4)C(c4cccc(Cl)c4)COC6)cn3)CCN12 (stereo not shown) [AH.2]
[2]
  IC50: < 1000 nM

## O=C1NCC2CN(c3ncc(-c4ccc5nc6n(c5c4)[C@@H](c4ccccc4Cl)COC6)cn3)CCN12 (stereo partly shown) [AH.3]
[2]
  IC50: < 1000 nM

## O=C1NCC2CN(c3ncc(-c4ccc5nc6n(c5c4)C(c4cccc(C(F)(F)F)c4)COC6)cn3)CCN12 (stereo not shown) [AH.4]
[2]
  IC50: < 1000 nM

## O=C1NCC2CN(c3ncc(-c4ccc5nc6n(c5n4)[C@@H](C4CCCCC4)CC6)cn3)CCN12 (stereo partly shown) [AH.5]
[2]
  IC50: < 1000 nM

## O=C1NCC2CN(c3ncc(-c4ccc5nc6n(c5n4)C(C4CCCCC4)CC6)cn3)CCN12 (stereo not shown) [AH.6]
[2]
  IC50: < 1000 nM

## O=C1NCC2CN(c3ncc(-c4ccc5nc6n(c5n4)C(c4ccccc4F)COC6)cn3)CCN12 (stereo not shown) [AH.7]
[2]
  IC50: < 1000 nM

## O=C1NCC2CN(c3ncc(-c4ccc5nc6n(c5n4)C(c4cccc(F)c4)COC6)cn3)CCN12 (stereo not shown) [AH.8]
[2]
  IC50: < 1000 nM

## CC1(c2ccccc2)CCc2nc3ccc(-c4cnc(N5CCN6C(=O)NCC6C5)nc4)nc3n21 (stereo not shown) [AH.9]
[2]
  IC50: < 1000 nM

## OC1CCN(c2ncc(-c3ccc4nc5n(c4n3)C(c3cccc(F)c3)COC5)cn2)CC1 (stereo not shown) [AI.1]
[2]
  IC50: < 1000 nM

## COc1ccccc1C1CCCc2nc3ccc(-c4cnc(N5CCC(O)CC5)nc4)cn3c21 (stereo not shown) [AJ.1]
[2]
  IC50: < 1000 nM

## COc1ccccc1C1CCCc2nc3ccc(-c4cnc(N5CCCC(O)CC5)nc4)cn3c21 (stereo not shown) [AJ.2]
[2]
  IC50: < 1000 nM

## COc1ccccc1C1CCCc2nc3ccc(-c4cnc(N5CCC(F)(CO)CC5)nc4)cn3c21 (stereo not shown) [AJ.3]
[2]
  IC50: < 1000 nM
